ChEMBL document CHEMBL1201862, “PubChem BioAssay data set” (2004)
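Results reflect a 48-hour exposure of cells in 96-well plates to compound at five concentrations. GI50 marks 50% less growth.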 The source made the active and inactive calls. No stated cut-off is given here; in the data, active = GI50 up to about 1.1 µM and inactive = higher. Where a SMILES comes first, the peptide text is derived from it. The star is where a group is joined. Cbz = O=C(OCc1ccccc1)*

Experiments:
Assay in all cases: NCI anticancer screen, dose series, 48 h
UO-31 = tested on: UO-31
UACC-62 = tested on: UACC-62
U-251 = tested on: U-251
OVCAR-8 = tested on: OVCAR-8
NCI-H23 = tested on: NCI-H23
NCI-H522 = tested on: NCI-H522
SK-MEL-5 = tested on: SK-MEL-5
SNB-75 = tested on: SNB-75
KM12 = tested on: KM12
HOP-62 = tested on: HOP-62
SF-295 = tested on: SF-295
OVCAR-3 = tested on: OVCAR-3
EKVX = tested on: EKVX
NCI-H226 = tested on: NCI-H226
OVCAR-5 = tested on: OVCAR-5
CCRF-CEM = tested on: CCRF-CEM
MDA-MB-231 = tested on: MDA-MB-231
TK-10 = tested on: TK-10
BT-549 = tested on: BT-549

| SMILES | GI50 (UO-31) | GI50 (UACC-62) | GI50 (U-251) | GI50 (OVCAR-8) | GI50 (NCI-H23) | GI50 (NCI-H522) | GI50 (SK-MEL-5) | GI50 (SNB-75) | GI50 (KM12) | GI50 (HOP-62) | GI50 (SF-295) | GI50 (OVCAR-3) | GI50 (EKVX) | GI50 (NCI-H226) | GI50 (OVCAR-5) | GI50 (CCRF-CEM) | GI50 (MDA-MB-231) | GI50 (TK-10) | GI50 (BT-549) |
| --- | --- | --- | --- | --- | --- | --- | --- | --- | --- | --- | --- | --- | --- | --- | --- | --- | --- | --- | --- |
| CCCCc1ccc(-n2c(C)c(COC(=O)NC)c(COC(=O)NC)c2C)cc1 | 2.7 µM (inactive) | 2.29 µM (inactive) | 4.92 µM (inactive) | 4.16 µM (inactive) | 7.28 µM (inactive) | 2.64 µM (inactive) | 11.4 µM (inactive) | 7.73 µM (inactive) | 12.7 µM (inactive) | 8.97 µM (inactive) | 8.61 µM (inactive) | 12.1 µM (inactive) | 13 µM (inactive) | 1.05 µM (active) | 4.78 µM (inactive) | 2.92 µM (inactive) | 4.9 µM (inactive) | 2.28 µM (inactive) |  |
| Nc1ncnc2c1nnn2C1CCC(CP(=O)(O)O)C1 (stereo not given) | > 100 µM (inactive) | > 100 µM (inactive) | > 100 µM (inactive) | > 100 µM (inactive) | > 100 µM (inactive) |  | > 100 µM (inactive) | > 100 µM (inactive) | > 100 µM (inactive) | > 100 µM (inactive) | > 100 µM (inactive) | > 100 µM (inactive) | > 100 µM (inactive) | > 100 µM (inactive) | > 100 µM (inactive) | > 100 µM (inactive) | > 100 µM (inactive) | > 100 µM (inactive) |  |
| O=C(c1cccs1)N(C(=S)OCc1ccccn1)c1ccccc1 | 32.6 µM (inactive) | > 100 µM (inactive) | 92.5 µM (inactive) | 56.5 µM (inactive) | 84.9 µM (inactive) |  | 51.2 µM (inactive) |  | 84.9 µM (inactive) |  | 40.4 µM (inactive) | 76.9 µM (inactive) | 14.4 µM (inactive) | 32.9 µM (inactive) | 23.4 µM (inactive) | 40.6 µM (inactive) | 59.7 µM (inactive) | > 100 µM (inactive) | 47.3 µM (inactive) |
| CN(C(=O)C12C3C4(C(=O)O)C1(C(=O)N(C)C(C)(C)C)C1C2(C(=O)O)C3(C(=O)N(C)C(C)(C)C)C14C(=O)N(C)C(C)(C)C)C(C)(C)C (stereo not given) | > 100 µM (inactive) | > 100 µM (inactive) | > 100 µM (inactive) | > 100 µM (inactive) | > 100 µM (inactive) | > 100 µM (inactive) | > 100 µM (inactive) |  | > 100 µM (inactive) | > 100 µM (inactive) | > 100 µM (inactive) | > 100 µM (inactive) | > 100 µM (inactive) |  | > 100 µM (inactive) | > 100 µM (inactive) | > 100 µM (inactive) | > 100 µM (inactive) | > 100 µM (inactive) |
| CN1C(=O)N(c2ccccc2)C2(CCN(CC3COc4ccccc4O3)CC2)C1=O (stereo not given) | > 100 µM (inactive) | > 100 µM (inactive) | > 100 µM (inactive) | > 100 µM (inactive) | 94.4 µM (inactive) | > 100 µM (inactive) | 71.6 µM (inactive) |  | > 100 µM (inactive) | > 100 µM (inactive) | > 100 µM (inactive) | 19.8 µM (inactive) | > 100 µM (inactive) | 59.2 µM (inactive) | > 100 µM (inactive) | > 100 µM (inactive) | > 100 µM (inactive) | > 100 µM (inactive) |  |
| CCCCOP1(=O)CC(C)=C(Cl)C(C)(OC)C1 (stereo not given) | > 100 µM (inactive) | > 100 µM (inactive) | > 100 µM (inactive) | 62.2 µM (inactive) | > 100 µM (inactive) | 37.9 µM (inactive) | > 100 µM (inactive) | > 100 µM (inactive) | > 100 µM (inactive) | > 100 µM (inactive) | > 100 µM (inactive) | > 100 µM (inactive) | > 100 µM (inactive) | > 100 µM (inactive) |  | 28.4 µM (inactive) |  | > 100 µM (inactive) |  |
| CCOP(=O)(OCC)/C(=C\N1C(=O)CC(=O)NC1=S)C(=O)OC | > 100 µM (inactive) | > 100 µM (inactive) | > 100 µM (inactive) | > 100 µM (inactive) | > 100 µM (inactive) |  | > 100 µM (inactive) | > 100 µM (inactive) | > 100 µM (inactive) | > 100 µM (inactive) | > 100 µM (inactive) | > 100 µM (inactive) | > 100 µM (inactive) | > 100 µM (inactive) | > 100 µM (inactive) |  | > 100 µM (inactive) | > 100 µM (inactive) | > 100 µM (inactive) |
| CCOC(=O)C(=CNc1ccc(F)c(F)c1)C(=O)OCC | 55.3 µM (inactive) |  | > 100 µM (inactive) | > 100 µM (inactive) | > 100 µM (inactive) | 81.7 µM (inactive) | > 100 µM (inactive) | > 100 µM (inactive) | > 100 µM (inactive) | > 100 µM (inactive) |  | > 100 µM (inactive) | 81.5 µM (inactive) | > 100 µM (inactive) | > 100 µM (inactive) | 54.5 µM (inactive) | > 100 µM (inactive) | > 100 µM (inactive) |  |
| CC(=O)NC(NCCN)(c1ccccc1)c1ccccc1 | 48 µM (inactive) |  | > 100 µM (inactive) | > 100 µM (inactive) | > 100 µM (inactive) |  | > 100 µM (inactive) | > 100 µM (inactive) | > 100 µM (inactive) | > 100 µM (inactive) | > 100 µM (inactive) |  | > 100 µM (inactive) | > 100 µM (inactive) | 67.9 µM (inactive) | > 100 µM (inactive) | > 100 µM (inactive) | > 100 µM (inactive) |  |
| Cc1ccc(S(=O)(=O)N2CC3OC(C)(C)OC3C2CO)cc1 (stereo not given) |  |  | > 100 µM (inactive) | > 100 µM (inactive) |  | > 100 µM (inactive) | > 100 µM (inactive) | > 100 µM (inactive) | > 100 µM (inactive) | > 100 µM (inactive) | > 100 µM (inactive) | > 100 µM (inactive) |  | > 100 µM (inactive) | > 100 µM (inactive) | > 100 µM (inactive) | > 100 µM (inactive) | > 100 µM (inactive) |  |
| CCOC(=O)N1CCC2(CC1)CC(=O)N(Nc1ccccc1)C2=O | 39.9 µM (inactive) | 32.1 µM (inactive) | > 100 µM (inactive) | > 100 µM (inactive) | > 100 µM (inactive) |  | > 100 µM (inactive) | > 100 µM (inactive) | 92.7 µM (inactive) | > 100 µM (inactive) | 40.3 µM (inactive) | > 100 µM (inactive) | > 100 µM (inactive) | > 100 µM (inactive) | 91.6 µM (inactive) | > 100 µM (inactive) | > 100 µM (inactive) | > 100 µM (inactive) | > 100 µM (inactive) |
| NC(=O)c1c2c(n3ccccc13)C(=O)c1ccccc1C2=O | > 100 µM (inactive) | 68.2 µM (inactive) | 39.6 µM (inactive) | > 100 µM (inactive) | 11.9 µM (inactive) |  | 16.1 µM (inactive) | 37.6 µM (inactive) | > 100 µM (inactive) | 30.2 µM (inactive) | 29 µM (inactive) |  | > 100 µM (inactive) | 52.4 µM (inactive) |  | > 100 µM (inactive) | 38.5 µM (inactive) | > 100 µM (inactive) | > 100 µM (inactive) |
| O=C(CN1CCOCC1)c1ccc2c(c1)oc(=O)n2CCN1CCCCC1 | > 100 µM (inactive) | > 100 µM (inactive) | > 100 µM (inactive) | > 100 µM (inactive) | > 100 µM (inactive) |  | > 100 µM (inactive) | 0.179 µM (active) | > 100 µM (inactive) | > 100 µM (inactive) | > 100 µM (inactive) | > 100 µM (inactive) | 82.2 µM (inactive) | > 100 µM (inactive) | > 100 µM (inactive) | > 100 µM (inactive) | > 100 µM (inactive) | > 100 µM (inactive) | > 100 µM (inactive) |
| CCOC(=O)C1=C(Nc2ccccc2)SC/C1=N\NC(=O)Cc1ccccc1 | > 100 µM (inactive) | > 100 µM (inactive) | > 100 µM (inactive) | > 100 µM (inactive) | > 100 µM (inactive) | > 100 µM (inactive) | > 100 µM (inactive) | > 100 µM (inactive) | > 100 µM (inactive) | > 100 µM (inactive) | > 100 µM (inactive) | > 100 µM (inactive) | > 100 µM (inactive) | > 100 µM (inactive) | > 100 µM (inactive) | > 100 µM (inactive) |  | > 100 µM (inactive) |  |
| COc1ccc(NC(=O)c2cc(NC(=O)/C=C/c3ccccc3)c(OC)c(OC)c2)cc1 | 1.98 µM (inactive) | 3.9 µM (inactive) | 8.91 µM (inactive) |  | > 100 µM (inactive) |  | 5.82 µM (inactive) | 2.26 µM (inactive) | 3.83 µM (inactive) | 31.5 µM (inactive) | 17.4 µM (inactive) | 60.1 µM (inactive) | 54.2 µM (inactive) | 6.64 µM (inactive) | 40.7 µM (inactive) | 7 µM (inactive) | 9.55 µM (inactive) | > 100 µM (inactive) |  |
| CCOC(=O)CNC(=O)C(C)NC(=O)C(NC(=O)OCc1ccccc1)C(C)C (stereo not drawn) (Cbz-Val-Ala-Gly-OEt; configuration not given here) | 98.9 µM (inactive) | > 100 µM (inactive) | > 100 µM (inactive) | > 100 µM (inactive) | > 100 µM (inactive) | 97.5 µM (inactive) | > 100 µM (inactive) | > 100 µM (inactive) | > 100 µM (inactive) | > 100 µM (inactive) | > 100 µM (inactive) | > 100 µM (inactive) | > 100 µM (inactive) | > 10 µM (inactive) | > 100 µM (inactive) |  |  | > 100 µM (inactive) | 58.7 µM (inactive) |
